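Briefly, cells in 96-well plates were exposed to five compound concentrations for 48 h, and endpoints were estimated by linear interpolation. TGI denotes the concentration required for complete inhibition of growth.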
Columns and labels:
Experiment in all cases: DTP human tumour cell line panel, 48 h
ACHN renal = test system: ACHN renal
NCI-H23 lung = test system: NCI-H23 lung
786-0 renal = test system: 786-0 renal
KM12 colon = test system: KM12 colon
UO-31 renal = test system: UO-31 renal
SNB-75 CNS = test system: SNB-75 CNS
SR leukemia = test system: SR leukemia
SF-295 CNS = test system: SF-295 CNS
COLO 205 colon = test system: COLO 205 colon
CCRF-CEM leukemia = test system: CCRF-CEM leukemia
HCT-15 colon = test system: HCT-15 colon
SK-OV-3 ovarian = test system: SK-OV-3 ovarian
XF 498 CNS = test system: XF 498 CNS
LOX IMVI melanoma = test system: LOX IMVI melanoma
NCI-H460 lung = test system: NCI-H460 lung
UACC-62 melanoma = test system: UACC-62 melanoma
RPMI-8226 leukemia = test system: RPMI-8226 leukemia
SK-MEL-28 melanoma = test system: SK-MEL-28 melanoma
SN12C renal = test system: SN12C renal
U251 CNS = test system: U251 CNS
SNB-19 CNS = test system: SNB-19 CNS
MOLT-4 leukemia = test system: MOLT-4 leukemia
M14 melanoma = test system: M14 melanoma
HL-60(TB) leukemia = test system: HL-60(TB) leukemia
KM20L2 colon = test system: KM20L2 colon
RXF 393 renal = test system: RXF 393 renal
OVCAR-4 ovarian = test system: OVCAR-4 ovarian
M19-MEL melanoma = test system: M19-MEL melanoma
SW-620 colon = test system: SW-620 colon
SF-539 CNS = test system: SF-539 CNS
K-562 leukemia = test system: K-562 leukemia
OVCAR-5 ovarian = test system: OVCAR-5 ovarian
DLD-1 colon = test system: DLD-1 colon
IGROV1 ovarian = test system: IGROV1 ovarian
HT29 colon = test system: HT29 colon
HOP-62 NSCLC = test system: HOP-62 NSCLC
DMS 114 small cell lung = test system: DMS 114 small cell lung
LXFL 529 NSCLC = test system: LXFL 529 NSCLC
MALME-3M melanoma = test system: MALME-3M melanoma
UACC-257 melanoma = test system: UACC-257 melanoma
HCT-116 colon = test system: HCT-116 colon
SNB-78 CNS = test system: SNB-78 CNS
A549 NSCLC = test system: A549 NSCLC
HOP-92 NSCLC = test system: HOP-92 NSCLC
CAKI-1 renal = test system: CAKI-1 renal
OVCAR-8 ovarian = test system: OVCAR-8 ovarian
DMS 273 small cell lung = test system: DMS 273 small cell lung
SF-268 CNS = test system: SF-268 CNS
NCI-H522 lung = test system: NCI-H522 lung
TK-10 renal = test system: TK-10 renal
OVCAR-3 ovarian = test system: OVCAR-3 ovarian
SK-MEL-5 melanoma = test system: SK-MEL-5 melanoma
HCC-2998 colon = test system: HCC-2998 colon
NCI-H226 lung = test system: NCI-H226 lung
EKVX NSCLC = test system: EKVX NSCLC
HOP-18 NSCLC = test system: HOP-18 NSCLC
A498 renal = test system: A498 renal
SK-MEL-2 melanoma = test system: SK-MEL-2 melanoma

What does the source list for `O=C(N/N=C(\C1=Nc2ccc(Cl)cc2NC1O)C(O)/C=C/c1ccccc1)c1ccncc1` (stereo unspecified)?
TGI (ACHN renal): > 100 µM; TGI (NCI-H23 lung): > 100 µM; TGI (786-0 renal): > 100 µM; TGI (KM12 colon): > 100 µM; TGI (UO-31 renal): > 100 µM; TGI (SNB-75 CNS): > 100 µM; TGI (SR leukemia): > 100 µM; TGI (SF-295 CNS): > 100 µM; TGI (COLO 205 colon): > 100 µM; TGI (CCRF-CEM leukemia): > 100 µM; TGI (HCT-15 colon): > 100 µM; TGI (SK-OV-3 ovarian): > 100 µM; TGI (XF 498 CNS): > 100 µM; TGI (LOX IMVI melanoma): > 100 µM; TGI (NCI-H460 lung): > 100 µM; TGI (UACC-62 melanoma): > 100 µM; TGI (RPMI-8226 leukemia): > 100 µM; TGI (SK-MEL-28 melanoma): > 100 µM; TGI (SN12C renal): > 100 µM; TGI (U251 CNS): > 100 µM; TGI (SNB-19 CNS): > 100 µM; TGI (MOLT-4 leukemia): > 100 µM; TGI (M14 melanoma): > 100 µM; TGI (HL-60(TB) leukemia): > 100 µM; TGI (KM20L2 colon): > 100 µM; TGI (RXF 393 renal): > 100 µM; TGI (OVCAR-4 ovarian): > 100 µM; TGI (M19-MEL melanoma): > 100 µM; TGI (SW-620 colon): > 100 µM; TGI (SF-539 CNS): > 100 µM; TGI (K-562 leukemia): > 100 µM; TGI (OVCAR-5 ovarian): > 100 µM; TGI (DLD-1 colon): > 100 µM; TGI (IGROV1 ovarian): > 100 µM; TGI (HT29 colon): > 100 µM; TGI (HOP-62 NSCLC): > 100 µM; TGI (DMS 114 small cell lung): > 100 µM; TGI (LXFL 529 NSCLC): > 100 µM; TGI (MALME-3M melanoma): > 100 µM; TGI (UACC-257 melanoma): > 100 µM; TGI (HCT-116 colon): > 100 µM; TGI (SNB-78 CNS): > 100 µM; TGI (A549 NSCLC): > 100 µM; TGI (HOP-92 NSCLC): > 100 µM; TGI (CAKI-1 renal): > 100 µM; TGI (OVCAR-8 ovarian): > 100 µM; TGI (DMS 273 small cell lung): > 100 µM; TGI (SF-268 CNS): > 100 µM; TGI (NCI-H522 lung): > 100 µM; TGI (TK-10 renal): > 100 µM; TGI (OVCAR-3 ovarian): > 100 µM; TGI (SK-MEL-5 melanoma): > 100 µM; TGI (HCC-2998 colon): > 100 µM; TGI (NCI-H226 lung): > 100 µM

For `O=C(CC(=O)c1ccccc1)C(=O)Nc1ccc(Cl)cc1`, which TGI (ACHN renal) is on record?
The TGI was over 100 µM.

And the TGI (NCI-H23 lung)?
Its TGI is over 100 µM.

And the TGI (786-0 renal)?
Its TGI is over 100 µM.

And the TGI (KM12 colon)?
Its TGI is over 100 µM.

What about the TGI (UO-31 renal) of the same compound?
Its TGI is over 100 µM.

What about the TGI (SNB-75 CNS) of the same compound?
Its TGI is over 100 µM.

And the TGI (SR leukemia)?
The TGI was over 100 µM.

What about the TGI (SF-295 CNS) of the same compound?
The TGI was over 100 µM.

And the TGI (COLO 205 colon)?
Its TGI is over 66.1 µM.

What about the TGI (CCRF-CEM leukemia) of the same compound?
The TGI was over 100 µM.

What about the TGI (HCT-15 colon) of the same compound?
Its TGI is over 59.7 µM.

And the TGI (SK-OV-3 ovarian)?
The TGI was over 100 µM.

What about the TGI (XF 498 CNS) of the same compound?
The TGI was over 100 µM.

And the TGI (LOX IMVI melanoma)?
Its TGI is over 56.7 µM.

And the TGI (NCI-H460 lung)?
Its TGI is over 55.1 µM.

What about the TGI (UACC-62 melanoma) of the same compound?
Its TGI is over 100 µM.

What about the TGI (RPMI-8226 leukemia) of the same compound?
The TGI was over 100 µM.

And the TGI (SK-MEL-28 melanoma)?
Its TGI is over 100 µM.

What about the TGI (SN12C renal) of the same compound?
Its TGI is over 100 µM.

What about the TGI (U251 CNS) of the same compound?
The TGI was over 100 µM.

What about the TGI (SNB-19 CNS) of the same compound?
Its TGI is over 100 µM.

What about the TGI (EKVX NSCLC) of the same compound?
The TGI was over 100 µM.

What about the TGI (MOLT-4 leukemia) of the same compound?
The TGI was over 100 µM.

What about the TGI (M14 melanoma) of the same compound?
The TGI was over 100 µM.

And the TGI (HL-60(TB) leukemia)?
The TGI was over 100 µM.

What about the TGI (KM20L2 colon) of the same compound?
Its TGI is over 100 µM.

What about the TGI (RXF 393 renal) of the same compound?
Its TGI is over 100 µM.

What about the TGI (OVCAR-4 ovarian) of the same compound?
The TGI was over 100 µM.

What about the TGI (SW-620 colon) of the same compound?
The TGI was over 60.2 µM.

And the TGI (SF-539 CNS)?
The TGI was over 100 µM.

What about the TGI (K-562 leukemia) of the same compound?
Its TGI is over 100 µM.

What about the TGI (OVCAR-5 ovarian) of the same compound?
The TGI was over 100 µM.

And the TGI (DLD-1 colon)?
The TGI was over 100 µM.

What about the TGI (IGROV1 ovarian) of the same compound?
Its TGI is over 100 µM.

And the TGI (HT29 colon)?
Its TGI is over 59.6 µM.

And the TGI (HOP-62 NSCLC)?
Its TGI is over 100 µM.

What about the TGI (DMS 114 small cell lung) of the same compound?
Its TGI is over 57 µM.

And the TGI (LXFL 529 NSCLC)?
Its TGI is over 100 µM.

What about the TGI (MALME-3M melanoma) of the same compound?
Its TGI is over 100 µM.

What about the TGI (HOP-18 NSCLC) of the same compound?
The TGI was over 100 µM.

What about the TGI (UACC-257 melanoma) of the same compound?
Its TGI is over 100 µM.

And the TGI (HCT-116 colon)?
Its TGI is over 61.5 µM.

What about the TGI (SNB-78 CNS) of the same compound?
Its TGI is over 100 µM.

And the TGI (A498 renal)?
Its TGI is over 100 µM.

What about the TGI (A549 NSCLC) of the same compound?
The TGI was over 100 µM.

And the TGI (HOP-92 NSCLC)?
Its TGI is over 100 µM.

What about the TGI (CAKI-1 renal) of the same compound?
Its TGI is over 100 µM.

And the TGI (OVCAR-8 ovarian)?
Its TGI is over 100 µM.

And the TGI (DMS 273 small cell lung)?
Its TGI is over 100 µM.

What about the TGI (SF-268 CNS) of the same compound?
Its TGI is over 100 µM.

What about the TGI (NCI-H522 lung) of the same compound?
Its TGI is over 100 µM.

And the TGI (TK-10 renal)?
The TGI was over 100 µM.

And the TGI (SK-MEL-2 melanoma)?
Its TGI is over 100 µM.

And the TGI (OVCAR-3 ovarian)?
The TGI was over 100 µM.

And the TGI (SK-MEL-5 melanoma)?
Its TGI is over 100 µM.

And the TGI (HCC-2998 colon)?
The TGI was over 100 µM.

And the TGI (NCI-H226 lung)?
The TGI was over 100 µM.
